How the values were obtained:
[1] = system: D1/85.16 cl.23 (VVC resistant); test: microbe, parasite or virus in culture; format: cell-based, HIV-1
Description: (§1) MAGI-CCR5 cells[18] were maintained in DMEM supplemented with 10% fetal calf serum (FCS: Gemini Bio-Products, West Sacramento, CA), 200 μg/ml G418, 100 μg/ml hygromycin B, and 100 μg/ml zeomycin. The Chinese hamster ovary (CHO) cells expressing CCR5[19] were maintained in Ham’s F-12 medium (GIBCO-BRL, Rockville, MD) supplemented with 10% FCS, 50 U/ml penicillin, and 50 μg/ml streptomycin in the presence of 5 μg/ml blasticidin S hydrochloride. TZM-bl cells were obtained from the NIH AIDS Reagent Program, and were cultured in DMEM with 10% FCS. Peripheral blood mononuclear cells (PBMCs) were isolated from buffy coats of HIV-1 seronegative individuals, and were activated with 10 μg/ml phytohemagglutinin (PHA) prior to use[16]. A laboratory wild-type R5-HIV-1 strain (HIV-1Ba-L)[37] was employed for drug susceptibility assays. AD101 (experimental CCR5 inhibitor) and VVC-resistant HIV clones[7],[8] were provided by Dr. John P. Moore of Cornell University for this study. The clones were propagated with activated PBMCs, and were used for the assays. A clinical HIV-1 strain, HIV-1KP-5pc, and an MVC-resistant isolate, HIV-1KP-5mvcR, were prepared and used for antiviral assays, as previously described[10],[38]. The following reagents (plasmids) for T/F HIV-1 viruses[22],[24] were obtained through the NIH AIDS Reagent Program, Division of AIDS, NIAID, NIH: pCH040.c/2625 (cat# 11740), pCH106.c/2633 (cat# 11743), pTHRO.c/2626 (cat# 11745), and pCH058.c/2960 (cat# 11856), from Dr. John Kappes and Dr. Christina Ochsenbauer.
(§2) Antiviral assays using PHA-PBMCs (p24 assay) were conducted as previously reported[16],[38]. In brief, PHA-PBMCs (1 × 10^6/ml) were exposed to 50 TCID50 of HIV-1Ba-L or drug-resistant HIV-1 infectious clones in the presence or absence of various concentrations of drugs; 10-fold serial dilutions were performed in 96-well microculture plates. The amount of p24 antigens produced by the cells was determined on day 7 in the culture via a commercially available ELISA kit (PerkinElmer). The p24 production level in drug-free control cell cultures was used as the reference. […] Antiviral assays using MAGI-CCR5 cells (MAGI assay) were conducted as previously reported[16],[39]. Single-round virus infection assays using TZM-bl cells infected with R5-HIV-1s (HIV-1YU2, HIV-1KP-5pc, and HIV-1KP-5mvcR)[10] were also conducted as previously described.

[2] = system: CC101.19 cl.7 (AD101 resistant); test: microbe, parasite or virus in culture; format: cell-based, HIV-1
Description: as §1, §2

[3] = molecular target: T1, CCR5 (Homo sapiens, UniProt P51681); test: Inhibition of 125I-RANTES binding to CCR5 (CCR5+ CHO cells)
T1 construct: expressed in transfected cells; host or cells: Chinese hamster ovary (CHO) cells expressing CCR5
T1 sequence (P51681 whole entry): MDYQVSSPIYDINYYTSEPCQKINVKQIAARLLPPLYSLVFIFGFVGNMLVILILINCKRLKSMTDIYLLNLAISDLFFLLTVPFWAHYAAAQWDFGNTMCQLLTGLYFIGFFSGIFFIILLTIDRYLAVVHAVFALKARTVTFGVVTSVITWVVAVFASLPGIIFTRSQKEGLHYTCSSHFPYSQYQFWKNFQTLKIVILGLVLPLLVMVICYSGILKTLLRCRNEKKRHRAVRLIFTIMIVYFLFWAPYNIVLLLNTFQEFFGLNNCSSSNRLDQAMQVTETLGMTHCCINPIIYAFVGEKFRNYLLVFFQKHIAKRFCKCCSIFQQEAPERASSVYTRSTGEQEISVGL
Description: In order to determine whether GRL derivatives block the binding of CC-chemokines to CCR5, we conducted a CC-chemokine binding inhibition assay using ^125I-labeled CC-chemokines (^125I-RANTES, ^125I-MIP-1α, and ^125I-MIP-1β) and CCR5 expressing cells.
CCR5^+ CHO cells were incubated with (A) ^125I-MIP-1α, (B) ^125I-MIP-1β, and (C) ^125I-RANTES (200 ng/ml) in the presence or absence of varying concentrations of CCR5 inhibitors. Data are shown as means ± s.d. of three independent experiments.
The inhibition of the binding of ^125I-labeled CC-chemokines ([^125I] RANTES, [^125I] MIP-1α, or [^125I] MIP-1β) to CCR5 by various CCR5 inhibitors was measured as previously described. Calcium flux inhibition assays were also performed with CCR5 inhibitors, and were carried out with the Fluo-4 Direct^TM calcium reagent (Invitrogen); assays were conducted as previously described with minor modifications. In brief, CHO-CCR5 cells (5 × 10^5 cells) were exposed to Fluo-4 Direct^TM calcium reagent for 60 min at 37 °C in RPMI containing 5% FCS. Cells were then incubated with the test compound for 30 min at varying concentrations. Subsequently, cells were exposed to either MIP-1α, MIP-1β, or RANTES at 200 ng/ml. Relative increases in cytosolic Ca^2+ levels after chemokine exposure were determined with flow cytometry (FACSCalibur, BD Biosciences), and IC50 values of cytosolic Ca^2+ mobilization (Ca^2+ flux) were compared with the Ca^2+ flux level in drug-free control samples.

[4] = system: HIV-1KP-5mvcR; test: TZM-bl single-round infection assay, MVC-resistant HIV-1KP-5mvcR; format: cell-based
Description: as §1, §2

[5] = Human immunodeficiency virus 1, TZM-bl

SMILES: C=CCN(C(=O)OCc1ccc([N+](=O)[O-])cc1)C1CC2CCC(C1)N2CCC(C)(CN(C)S(=O)(=O)c1ccccc1)c1ccccc1 (stereo not shown) [GRL-117C]
- IC50 ([1]; D1/85.16 cl.23 (VVC resistant)): 29.8 nM
- IC90 ([1]; Human immunodeficiency virus 1): 415 nM
- IC50 ([1]; Human immunodeficiency virus 1, D1/85.16 cl.23 (VVC resistant)): < 40 nM
- IC50 ([2]; CC101.19 cl.7 (AD101 resistant)): 32.5 nM
- IC90 ([2]; Human immunodeficiency virus 1): 296 nM
- IC50 ([2]; Human immunodeficiency virus 1, CC101.19 cl.7 (AD101 resistant)): < 40 nM
- EC50 [3]: 121 nM
- IC50 against HIV-1KP-5mvcR relative to that of MVC ([4]; 686 nM vs MVC 41 nM): more than 10 fold
- IC50 [4, 5]: 686 ± 89 nM
- IC90 [4, 5]: > 100 nM

— paper PMC6423129, “Activity and structural analysis of GRL-117C: a novel small molecule CCR5 inhibitor active against R5-tropic HIV-1s” (Scientific Reports, 2019)
